Reference: US6229016A, “Method for treating tumors using 2-aryl-naphthyridin-4-ones” (priority 2000, dated 2001)
Where two headings read alike, the source gives them in different places.

Tests used:
[1] = test system: OVCAR-3 ovarian cancer cell line; assay: NCI in vitro screen, ovarian cancer OVCAR-3; assay type: cell-based; conditions: Homo sapiens, read-out: Cytotoxicity log GI50 (converted)
[2] = test system: HCT-116 colon cancer cell line; assay: NCI in vitro screen, colon cancer HCT-116; assay type: cell-based; conditions: Homo sapiens; HCT-1.16 (head); HCT-116 (footnote); read-out: Cytotoxicity log GI50 (converted)
[3] = test system: NCI-H460 non-small cell lung cancer cell line; assay: NCI in vitro screen, non-small cell lung cancer NCI-H460; assay type: cell-based; conditions: Homo sapiens, read-out: Cytotoxicity log GI50 (converted)
[4] = test system: MDA-N breast cancer cell line; assay: NCI in vitro screen, breast cancer MDA-N; assay type: cell-based; conditions: Homo sapiens; for IC (TGI): range over four compounds and two cell lines, read-out: log TGI; for GI50: read-out: Cytotoxicity log GI50 (converted)
Source text: (§1) Compounds 41-51 and 53-68 were submitted to NCI and assayed in the NCI's in vitro disease-oriented antitumor screen, which involves determination of a test compound's effects on the growth of approximately 60 human tumor cell lines. See, M. R. Boyd, et al. In Cancer: Principles and Practice of Oncology Updates; De Vita, V. T., Hellman, S., Rosenberg, S. A., Eds; J. B. Lippincoft: Philadelphia, pp 1-12 (1989); and A. Monks, et al. J. Natl. Cancer Inst. 83:757 (1991). These lines include leukemia, non-small cell lung, colon, central nervous system (CNS), melanoma, ovarian, renal, prostate, and breast cancers.
(§2) Compounds 29'-51' were submitted to NCI and assayed in the NCI's in vitro disease-oriented antitumor screen, using the techniques described in Example 5. This assay involves determinations of a test agent's effect on growth parameters against a panel of approximately 60 human tumor cell lines, derived largely from solid tumors, including non-small cell lung, colon, central nervous system, renal, ovarian, prostate, and breast cancers, plus a few leukemia cell lines. The cytotoxic effects of each compound are obtained as GI50 or […] values, which represent the molar drug concentrations required to cause half growth inhibition and total growth inhibition, respectively. The results are expressed for each cell line as average log GI50 values in Table 4, as log GI50 values in Table 5, and as log TGI values and average log TGI values in Table 6.

[5] = test system: PC-3 prostate cancer cell line; assay: NCI in vitro screen, prostate cancer PC-3; assay type: cell-based; conditions: Homo sapiens, read-out: Cytotoxicity log GI50 (converted)
Source text: as §1, §2

[6] = test system: MDA-MB-435 breast cancer cell line; assay: NCI in vitro screen, breast cancer MDA-MB-435; assay type: cell-based; conditions: Homo sapiens; for IC (TGI): range over four compounds and two cell lines, read-out: log TGI; for GI50: read-out: Cytotoxicity log GI50 (converted)
[7] = test system: U-251 CNS cancer cell line; assay: NCI in vitro screen, CNS cancer U-251; assay type: cell-based; conditions: Homo sapiens, read-out: Cytotoxicity log GI50 (converted)
[8] = test system: NCI's 60 human tumor cell line; assay: NCI 60 human tumor cell line in vitro screen (average / whole panel); assay type: cell-based; conditions: calculated from all cell lines tested, molar concentrations, read-out: average log GI50 (converted)
[9] = test system: 786-0 renal cancer cell line; assay: NCI in vitro screen, renal cancer 786-0; assay type: cell-based; conditions: Homo sapiens, read-out: Cytotoxicity log GI50 (converted)
Source text: as §1, §2

NCI-H226 cell line = assay: NCI in vitro screen, NCI-H226; assay type: cell-based; conditions: Homo sapiens, range over four compounds, read-out: log TGI
Source text: as §1

[10] = test system: SF-295 CNS cancer cell line; assay: NCI in vitro screen, CNS cancer SF-295; assay type: cell-based; conditions: Homo sapiens, read-out: Cytotoxicity log GI50 (converted)
[11] = test system: HL-60(TB) leukemia cell line; assay: cells; assay type: cell-based; conditions: Homo sapiens; for IC (TGI): HL-60, H-60 cell line, range over four compounds, read-out: log TGI; for GI50: HL-60(TB), read-out: Cytotoxicity log GI50 (converted)
[12] = test system: SK-MEL-5 melanoma cell line; assay: NCI in vitro screen, melanoma SK-MEL-5; assay type: cell-based; conditions: Homo sapiens, read-out: Cytotoxicity log GI50 (converted)
Source text: as §1, §2

tubulin = assay: Tubulin polymerization assay; assay type: biochemical, bovine
Procedure: Electrophoretically homogeneous bovine brain tubulin was purified as described in E. Hamel, et al. Biochemistry 23:4173 (1984).
The tubulin polymerization assay was performed as described in S. Kuo, et al. J. Med. Chem. 36:1146 (1993); L. Li, et al. J. Med. Chem. 37:1126 (1994); and L. Li J. Med. Chem. 37:3400 (1994). In brief, tubulin at 1.2 mg/ml (12 μM) was preincubated for 15 min at 26° C. in a 0.24-ml volume of 0.8 M monosodium glutamate (pH 6.6 with NaOH in a 2 M stock solution) with varying drug concentrations. The drug stock solutions were in DMSO, and the final solvent concentration was 4 % (v/v). All concentrations are in terms of the final reaction volume (0.25 ml). The reaction mixtures were chilled on ice, and 10 μl of 10 mM GTP was added to each reaction mixture. Samples were transferred to cuvettes held at 0° C. by an electronic temperature controller in Gilford spectrophotometers. Baselines were established at 350 nm, and polymerization initiated by a temperature jump to 26° C. The jump took about 50 sec to complete. After 20 min, turbidity readings were recorded, and the temperature controller was set to 0C. When depolymerization was complete, turbidity readings were again recorded. […] IC50 values were obtained graphically from inhibition of polymerization by different drug concentrations.
Electrophoretically, homogeneous bovine brain tubulin was purified as described in Example 6.
The tubulin polymerization assay was performed as described in Example 6.

[13] = Tables 1 and 4, read-out: ITP HC50 ± SD (Inhibition of Tubulin Polymerization)
[14] = read-out: IC50, inhibition of tubulin polymerization

| SMILES | GI50 [1] | GI50 [2] | GI50 [3] | IC (TGI) [4] | GI50 [4] | GI50 [5] | IC (TGI) [6] | GI50 [6] | GI50 [7] | GI50 [8] | GI50 [9] | IC (TGI) (NCI-H226 cell line) | GI50 [10] | IC (TGI) [11] | GI50 [11] | GI50 [12] | IC50 (tubulin; [13]) | IC50 (tubulin; [14]) |
| --- | --- | --- | --- | --- | --- | --- | --- | --- | --- | --- | --- | --- | --- | --- | --- | --- | --- | --- |
| COc1cccc(-c2cc(=O)c3cccnc3[nH]2)c1 [Compound 44] | 0.055 µM | 0.0363 µM | 0.0912 µM | 0.0214 to 0.0398 µM | < 0.01 µM | 0.0933 µM | 0.0214 to 0.0398 µM | < 0.01 µM | 0.055 µM | 0.135 µM | 0.0617 µM | 0.0759 to 0.692 µM | 0.0525 µM | 0.0398 to 0.0646 µM | 0.0162 µM | 0.0537 µM | – | – |
| COc1cccc(-c2cc(=O)c3cc(C)cnc3[nH]2)c1 [Compound 46] | 0.0417 µM | 0.0224 µM | 0.0437 µM | 0.0214 to 0.0398 µM | < 0.01 µM | 0.0427 µM | 0.0214 to 0.0398 µM | < 0.01 µM | 0.0447 µM | 0.0955 µM | 0.0372 µM | 0.0759 to 0.692 µM | 0.0372 µM | 0.0398 to 0.0646 µM | 0.0191 µM | 0.0257 µM | – | – |
| COc1cccc(-c2cc(=O)c3ccc(C)nc3[nH]2)c1 [Compound 47] | 0.0224 µM | 0.0468 µM | 0.0437 µM | 0.0214 to 0.0398 µM | 0.011 µM | 0.0331 µM | 0.0214 to 0.0398 µM | < 0.01 µM | 0.0537 µM | 0.0575 µM | 0.0537 µM | 0.0759 to 0.692 µM | 0.0302 µM | 0.0398 to 0.0646 µM | 0.0182 µM | 0.0339 µM | – | – |
| O=C1CC(c2ccc(F)cc2)=Nc2ncccc21 [Compound 56, 2-(4'-Fluorophenyl)-1,8-naphthyridin-4-one] | 45.7 µM | 42.7 µM | 34.7 µM | – | 14.1 µM | 45.7 µM | – | 12 µM | 47.9 µM | 45.7 µM | 44.7 µM | – | 50.1 µM | – | 12.9 µM | 30.2 µM | > 40 µM | – |
| Cc1ccnc2c1C(=O)CC(c1ccc(F)cc1)=N2 [Compound 57, 2-(4'-Fluorophenyl)-5-methyl-1,8-naphthyridin-4-one] | 56.2 µM | 16.2 µM | 32.4 µM | – | 3.55 µM | 51.3 µM | – | 2.88 µM | 36.3 µM | 38 µM | 33.9 µM | – | 79.4 µM | – | 4.79 µM | 16.2 µM | 18 ± 2 µM | 11 to 32 µM |
| Cc1cnc2c(c1)C(=O)CC(c1ccc(F)cc1)=N2 [Compound 58, 2-(4'-Fluorophenyl)-6-methyl-1,8-naphthyridin-4-one] | 22.4 µM | 24 µM | 33.9 µM | – | 3.02 µM | 25.7 µM | – | 2.63 µM | 25.1 µM | 26.3 µM | 32.4 µM | – | 29.5 µM | – | 2.4 µM | 21.9 µM | 20 ± 2 µM | 11 to 32 µM |
| Cc1ccc2c(n1)N=C(c1ccc(F)cc1)CC2=O [Compound 59, 2-(4'-Fluorophenyl)-7-methyl-1,8-naphthyridin-4-one] | 32.4 µM | 33.9 µM | 33.9 µM | – | 11.7 µM | 20.9 µM | – | 5.89 µM | 37.2 µM | 32.4 µM | 41.7 µM | – | 37.2 µM | – | 14.1 µM | 31.6 µM | > 40 µM | > 40 µM |
| Cc1cc(C)c2c(n1)N=C(c1ccc(F)cc1)CC2=O [Compound 60, 2-(4'-Fluorophenyl)-5,7-dimethyl-1,8-naphthyridin-4-one] | 43.7 µM | 50.1 µM | 51.3 µM | – | 25.1 µM | 30.2 µM | – | 18.6 µM | 95.5 µM | 40.7 µM | 79.4 µM | – | 50.1 µM | – | 15.5 µM | 26.3 µM | > 40 µM | > 40 µM |
| O=C1CC(c2ccc(F)cc2)=Nc2ncc(Cl)cc21 [Compound 61, 2-(4'-Fluorophenyl)-6-chloro-1,8-naphthyridin-4-one] | 17.4 µM | 17 µM | 30.2 µM | – | 2.95 µM | 21.9 µM | – | 2.57 µM | 29.5 µM | 21.9 µM | 32.4 µM | – | 21.4 µM | – | 3.89 µM | 6.61 µM | 16 ± 3 µM | 11 to 32 µM |
| O=C1CC(c2ccc(Cl)cc2)=Nc2ncccc21 [Compound 62, 2-(4'-Chlorophenyl)-1,8-naphthyridin-4-one] | 23.4 µM | 32.4 µM | 38 µM | – | 8.32 µM | 47.9 µM | – | 5.89 µM | 39.8 µM | 38.9 µM | 33.9 µM | – | 40.7 µM | – | 16.6 µM | 28.8 µM | 22 ± 0.1 µM | 11 to 32 µM |
| Cc1ccnc2c1C(=O)CC(c1ccc(Cl)cc1)=N2 [Compound 63, 2-(4'-Chlorophenyl)-5-methyl-1,8-naphthyridin-4-one] | 3.16 µM | 3.72 µM | 3.72 µM | – | 1.32 µM | 2.88 µM | – | 0.759 µM | 4.57 µM | 5.13 µM | 3.98 µM | – | 5.37 µM | – | 1.78 µM | 3.47 µM | 4.8 ± 1.4 µM | 1.5 to 9.8 µM |
| Cc1cnc2c(c1)C(=O)CC(c1ccc(Cl)cc1)=N2 [Compound 64, 2-(4'-Chlorophenyl)-6-methyl-1,8-naphthyridin-4-one] | 2.24 µM | 2.82 µM | 3.89 µM | – | 0.562 µM | 1.15 µM | – | 0.603 µM | 3.02 µM | 3.72 µM | 6.31 µM | – | 2.4 µM | – | 2.24 µM | 2.19 µM | 2 ± 0.01 µM | 1.5 to 9.8 µM |
| Cc1ccc2c(n1)N=C(c1ccc(Cl)cc1)CC2=O [Compound 65, 2-(4'-Chlorophenyl)-7-methyl-1,8-naphthyridin-4-one] | 2.57 µM | 3.31 µM | 4.47 µM | – | 1 µM | 1.66 µM | – | 0.912 µM | 4.79 µM | 4.9 µM | 6.31 µM | – | 4.57 µM | – | 2.95 µM | 4.37 µM | 11 ± 0.7 µM | 11 to 32 µM |
| Cc1cc(C)c2c(n1)N=C(c1ccc(Cl)cc1)CC2=O [Compound 66, 2-(4'-Chlorophenyl)-5,7-dimethyl-1 ,8-naphthyridin-4-one] | 18.2 µM | 14.8 µM | 22.4 µM | – | 3.63 µM | 6.31 µM | – | 4.07 µM | 30.2 µM | 19.5 µM | 21.4 µM | – | 16.2 µM | – | 25.1 µM | 14.1 µM | 32 ± 8 µM | 11 to 32 µM |
